Common to all, as to type: cell-based, human
Assay [1] relates to SW780 cells. Description: Cisplatin / HDAC inhibitor combination, MTT survival with isobologram combination index, SW780. The conditions noted are these: administered at their IC90s; SW780 and HT1376 cells (Table 3). Here is the method: Isobolograms were used to calculate combination indices to indicate synergy at IC50 and IC90, whereby CI<1 denotes synergy.
(§1) Bladder Cancer Cell Lines—SW780 and HT1376 cell lines were grown in RPMI with 10% fetal bovine serum at 37° C. with 5% CO2 and treated with cisplatin, AR-42, sodium butyrate, trichostatin A, and valproic acid at concentrations indicated.
SW780 and HT1376 cells treated with cisplatin, AR-42, a combination cisplatin and AR-42 at a 5:1 ratio, a combination cisplatin and AR-42 in a 20:1 molar ratio, as assessed by MTT incorporation (FIG. 2).

In assay [2] the test system is HT1376 bladder cancer cell line. Description: Cell viability by MTT incorporation, HT1376 bladder cancer cells. The conditions noted are these: read-out: HT1376 IC50. Here is the method:
(§2) SW780 and HT1376 bladder cancer cell lines stained with anti-CD44 and anti-CD49f were examined by flow cytometry. Cells were treated with cisplatin, AR-42, sodium butyrate, valproic acid, and trichostatin A at concentrations indicated for 24 hours and cell viability was determined by MTT incorporation. The table denotes IC50s for SW780 and HT1376 cells to listed agents.
as §1
(§3) SW780 and HT1376 cell lines were treated with cisplatin, AR-42, sodium butyrate, valproic acid, and trichostatin A at various concentrations and cell viability was determined by MTT incorporation (FIG. 1).

Assay [3] deals with SW780 bladder cancer cell line. Description: Cell viability by MTT incorporation, SW780 bladder cancer cells. The conditions noted are these: read-out: SW780 IC50. Here is the method:
as §2, §1, §3

The mark [4] stands for this setting: Homo sapiens, HT-1376, HT1376 cells, 24 hours treatment, MTT incorporation.
Where [5] appears, read: Homo sapiens, SW780 cells, 24 hours treatment, MTT incorporation.
Where [6] appears, read: HT1376 cells, 24 hours treatment, MTT incorporation.
[7] abbreviates: SW780 cells, 24 hours treatment, MTT incorporation.

Read-outs that look alike come from different tables or passages of the source.

As a reminder, the IC50 is the concentration that inhibits the measured activity by half. As to `CC(C)[C@H](C(=O)Nc1ccc(C(=O)NO)cc1)c1ccccc1` [AR-42], in assay [1], the synergy with cisplatin result is “synergy”. Besides, the IC50 in assay [2] (setting [4]) was determined as 1.4 µM; in assay [3] (setting [5]), 1.41 µM.

With `N.N.[Cl][Pt][Cl]` [Cisplatin], the IC50 in assay [2] (setting [6]) was found to be 30.5 µM; in assay [3] (setting [7]), 8.5 µM.

For the compound `CCCC(=O)[O-].[Na+]` [Sodium Butyrate], the synergy with cisplatin entry in assay [1] is listed as “synergy”. In addition, the IC50 in assay [2] (Homo sapiens, HT-1376, 24 h) was found to be 8530 µM; in assay [3] (Homo sapiens, SW780, 24 h) it was 3780 µM.

As for `CC(/C=C/C(=O)NO)=C\[C@@H](C)C(=O)c1ccc(N(C)C)cc1` [Trichostatin A], the IC50 in assay [2] (setting [6]) was determined as 0.12 µM; in assay [3] (setting [7]), 0.25 µM.

For the compound `CCCC(CCC)C(=O)O` [Valproic Acid], the IC50 in assay [2] (setting [4]) was determined as 7390 µM; in assay [3] (setting [5]), 6040 µM.

Source of the values: patent publication US20160143946A1, “COMBINATION THERAPIES FOR TREATING CANCER” (priority 2014, published 2016).
